Source: US20250360179A1, “PEPTIDE-IONIC LIQUID CONJUGATE FOR THE PREVENTION AND/OR TREATMENT OF SKIN DISORDERS” (UNIVERSIDADE DO PORTO, priority 2022, published 2025)
Values joined by “and” are separate entries in the source; they are usually repeats but may differ in a detail not shown here. Equal values may be shown once. Read-outs that look alike come from different tables or passages of the source. Marks after values point to notes of the source that are not given here. Residues, ends and D or L forms follow the SMILES beside them. *: point of attachment. X1 = CCCCCCCCCCCCCCCCn1cc[n+](Cc2cn(CC(=O)*)nn2)c1; X2 = Cn1cc[n+](Cc2cn(CC(=O)*)nn2)c1

Key:
Format in all cases: cell-based
[1] = tested on: Candida albicans (ATCC 90028); experiment: Antifungal MIC (EUCAST) against C. albicans; conditions: C. albicans ATCC 90028, n = 2
[2] = tested on: Candida glabrata (ATCC 90030); experiment: Antifungal MIC (EUCAST) against C. glabrata; conditions: C. glabrata ATCC 90030, n = 2
[3] = tested on: Candida parapsilosis (ATCC 22019); experiment: Antifungal MIC (EUCAST) against C. parapsilosis; conditions: C. parapsilosis ATCC 22019, n = 2
E. coli ATCC 25922 = experiment: MIC (CLSI) against E. coli ATCC 25922; conditions: E. coli ATCC 25922, n = 3
P. aeruginosa ATCC 27853 = experiment: MIC (CLSI) against P. aeruginosa ATCC 27853; conditions: P. aeruginosa ATCC 27853, n = 3
S. aureus ATCC 29213 = experiment: MIC (CLSI) against S. aureus ATCC 29213; conditions: S. aureus ATCC 29213, n = 3
E. faecalis ATCC 29212 = experiment: MIC (CLSI) against E. faecalis ATCC 29212; conditions: E. faecalis ATCC 29212, n = 3
K. pneumonia ATCC 138830 = experiment: MIC (CLSI) against K. pneumoniae ATCC reference strain; conditions: K. pneumonia ATCC 138830, n = 3
[4] = tested on: S. epidermidis ATCC 14990; experiment: MIC (CLSI) against S. epidermidis ATCC 14990; conditions: S. epidermidis ATCC 14990, n = 3
S. pyogenes ATCC 19615 = experiment: MIC (CLSI) against S. pyogenes ATCC 19615; conditions: S. pyogenes ATCC 19615, n = 3
[5] = tested on: K. pneumoniae (KP010) MDR clinical isolate; conditions: MDR isolate KP010, n = 3
[6] = tested on: P. aeruginosa (PA004) MDR clinical isolate; conditions: MDR isolate PA004, n = 3
[7] = tested on: S. aureus (SA007) MDR clinical isolate; conditions: for MIC: MDR isolate SA007, n = 3
S. aureus (ATCC 29213) = experiment: MIC and MBC in MHB and simulated wound fluid (SWF); conditions: for MBC: S. aureus ATCC 29213 in MHB, n = 3; for antibacterial activity in simulated wound fluid (SWF): S. aureus, SWF compared with MHB
Description: The antibacterial activity of C16Im-KTTKS and KTTK(C16Im)S was also assessed in SWF (50) against S. aureus (ATCC 29213), to check if it was preserved in this medium.

[8] = tested on: human dermal fibroblasts (HDF); experiment: Collagen production in vitro (Sircol kit); conditions: 5 μM, versus negative control
Description: FIG. 3—Collagen synthesis by Human Dermal Fibroblasts (HDF), in presence of C16-KTTKS-OH (Matrixyl®), KTTK (C16Im)S and C16Im-KTTKS at 5 μM, using the Sircol™ Kit. Data are presented as mean±SEM (3 independent experiments in triplicates) expressed in collagen amount (% of control); *p<0.05, **p<0.01.
The point of conjugating antimicrobial ILs to a collagenesis-inducing peptide was to afford a simple construct able to exert a dual antimicrobial and skin rebuilding action. Therefore, the two best IL-KTTKS conjugates were further tested for their ability to promote collagen production by human dermal fibroblasts (HDF) in vitro. This was assessed using the Sircol® kit assay, whereby the amount of newly formed collagen in the ECM that is deposited in the microwell-plated cell cultures is solubilized in an acidic medium and next quantified through a collagen standard curve according to the Sircol® kit assay procedure (55). Assays were conducted in different conditions for comparison, namely, in the presence of the reference cosmeceutical Matrixyl® (positive control—C16-KTTKS-OH), of the test conjugates KTTK(C16Im)S and C16Im-KTTKS, and in the absence of any peptide (negative control).

[9] = tested on: Gram-negative and Gram-positive bacteria (ATCC reference strains); experiment: Antibacterial activity against ATCC reference strains, statements across species; conditions: Gram-positive species at MIC values
Description: The antimicrobial activity of the IL-KTTKS conjugates was assessed in vitro against reference bacterial strains (American Type Culture Collection, ATCC). The minimal inhibitory concentration (MIC) was determined according to the Clinical and Laboratory Standards Institute (CLSI) guidelines (43) against Gram-positive (S. aureus, E. faecalis) and Gram-negative (E. coli, P. aeruginosa) bacteria. […] IL are in agreement with those previously reported (44).

With `OC(Cn1cncn1)(Cn1cncn1)c1ccc(F)cc1F` [Fluconazole, reference compound] the MIC ([1]; Candida albicans, ATCC90028, read-out: MIC) was 0.5 µg/mL, the MIC ([2]; Nakaseomyces glabratus, ATCC90030, read-out: MIC) was 8 µg/mL and the MIC ([3]; ATCC22019, read-out: MIC) was 2 µg/mL.
`C[C@@H](O)[C@H](NC(=O)[C@@H](NC(=O)[C@@H](N)CCCCn1cc(C[n+]2ccn(C)c2)nn1)[C@@H](C)O)C(=O)N[C@@H](CCCCn1cc(C[n+]2ccn(C)c2)nn1)C(=O)N[C@@H](CO)C(N)=O` [K(MeIm)TTK(MeIm)S] was tested, and the MIC (E. coli ATCC 25922) was greater than 1067.4 µg/mL, the MIC (P. aeruginosa ATCC 27853) was > 1245.5 μM and > 1067.4 μg/mL and the MIC (S. aureus ATCC 29213) was > 1245.5 μM and > 1067.4 μg/mL. The MIC (E. faecalis ATCC 29212) was > 1245.5 μM and > 1067.4 μg/mL.
In the case of `C[C@@H](O)[C@H](NC(=O)[C@@H](NC(=O)[C@@H](N)CCCCn1cc(C[n+]2ccn(C)c2)nn1)[C@@H](C)O)C(=O)N[C@@H](CCCCN)C(=O)N[C@@H](CO)C(N)=O` [K(MeIm)TTKS], the MIC (E. coli ATCC 25922) is reported as greater than 731.2 µg/mL, the MIC (P. aeruginosa ATCC 27853) is reported as > 1030.1 μM and > 731.2 μg/mL and the MIC (S. aureus ATCC 29213) is reported as > 1030.1 μM and > 731.2 μg/mL. For the same compound, the MIC (E. faecalis ATCC 29212) was > 1030.1 μM and > 731.2 μg/mL.
For `CCCCCCCCCCCCCCn1cc[n+](Cc2cn(CCCC[C@H](NC(=O)[C@@H](NC(=O)[C@@H](NC(=O)[C@@H](N)CCCCN)[C@@H](C)O)[C@@H](C)O)C(=O)N[C@@H](CO)C(N)=O)nn2)c1` [KTTK(C14Im)S], the MIC (E. coli ATCC 25922) was “(26.3) μg/mL”, the MIC (P. aeruginosa ATCC 27853) was “(52.6)^b μg/mL” and the MIC (S. aureus ATCC 29213) was “(26.3) μg/mL”. For the same compound, the MIC (E. faecalis ATCC 29212) was “(52.6)^b μg/mL”.
`CCCCCCCCCCCCCCCCn1cc[n+](Cc2cn(CCCC[C@H](NC(=O)[C@@H](NC(=O)[C@@H](NC(=O)[C@@H](N)CCCCN)[C@@H](C)O)[C@@H](C)O)C(=O)N[C@@H](CO)C(N)=O)nn2)c1` [KTTK(C16Im)S] was tested, and the MIC (E. coli ATCC 25922) was “(6.45) μg/mL”, the MIC (P. aeruginosa ATCC 27853) was “(29.9) μg/mL” and the MIC (S. aureus ATCC 29213) was “(12.9) μg/mL”. The MIC (E. faecalis ATCC 29212) was “(29.9) μg/mL”, the MIC (K. pneumonia ATCC 138830) was “(49.5) μg/mL” and the MIC [4] was “(5.0) μg/mL”. The MIC (S. pyogenes ATCC 19615) was “(10.0) μg/mL”, the MIC [5] was 20.0 µg/mL and the MIC [6] was 21.7 μM and 20.0 μg/mL. The MIC [7] was 21.7 μM and 20.0 μg/mL, the MBC (S. aureus (ATCC 29213)) was “[64-128] μg/mL” and the “antibacterial activity in simulated wound fluid (SWF)” value (S. aureus (ATCC 29213)) was “slightly decrease”. For the same compound, the MIC [1] was 5.0 µg/mL, the MIC [2] was “(5.0) μg/mL” and the MIC [3] was “(2.5) μg/mL”. For the same compound, the “collagen production (collagen amount, % of control)” value [8] was “produce more collagen” and the “bacteriostatic or bactericidal action” value [9] was “bactericidal”.
`C[C@@H](O)[C@H](NC(=O)[C@@H](NC(=O)[C@@H](N)CCCCN)[C@@H](C)O)C(=O)N[C@@H](CCCCn1cc(C[n+]2ccn(C)c2)nn1)C(=O)N[C@@H](CO)C(N)=O` [KTTK(MeIm)S] was tested, and the MIC (E. coli ATCC 25922) was greater than 677.3 µg/mL, the MIC (P. aeruginosa ATCC 27853) was > 954.2 μM and > 677.3 μg/mL and the MIC (S. aureus ATCC 29213) was > 954.2 μM and > 677.3 μg/mL. For the same compound, the MIC (E. faecalis ATCC 29212) was > 954.2 μM and > 677.3 μg/mL.
In the case of `C[C@@H](O)[C@H](NC(=O)[C@H](CCCCN)NC(=O)Cn1cc(C[n+]2ccn(C)c2)nn1)C(=O)N[C@H](C(=O)N[C@@H](CCCCN)C(=O)N[C@@H](CO)C(N)=O)[C@@H](C)O` [MeIm-KTTKS] (X2-KTTKS-NH2; N-terminus and C-terminus assumed), the MIC (E. coli ATCC 25922) is reported as greater than 633.4 µg/mL, the MIC (P. aeruginosa ATCC 27853) is reported as > 825.9 μM and > 633.4 μg/mL and the MIC (S. aureus ATCC 29213) is reported as > 825.9 μM and > 633.4 μg/mL. The MIC (E. faecalis ATCC 29212) was > 825.9 μM and > 633.4 μg/mL.
For `CCCCCCCCCCCCCCCCn1cc[n+](Cc2cn(CC(=O)N[C@@H](CCCCN)C(=O)N[C@H](C(=O)N[C@H](C(=O)N[C@@H](CCCCN)C(=O)N[C@@H](CO)C(N)=O)[C@@H](C)O)[C@@H](C)O)nn2)c1` [Peptide C16Im-KTTKS] (X1-KTTKS-NH2; N-terminus and C-terminus assumed), the MIC (E. coli ATCC 25922) was “(14.0) μg/mL”, the MIC (P. aeruginosa ATCC 27853) was “(28.0) μg/mL” and the MIC (S. aureus ATCC 29213) was “(14.0) μg/mL”. The MIC (E. faecalis ATCC 29212) was “(28.0) μg/mL”, the MIC (K. pneumonia ATCC 138830) was “(26.8) μg/mL” and the MIC [4] was “(9.3) μg/mL”. For the same compound, the MIC (S. pyogenes ATCC 19615) was “(18.5) μg/mL”, the MIC [5] was “(37.0) μg/mL” and the MIC [6] was “(18.5) μg/mL”. For the same compound, the “MIC relative to that of ciprofloxacin” value ([7]; MDR isolate SA007) was roughly 10 fold, the MIC [7] was “(18.5)^a μg/mL” and the MBC (S. aureus (ATCC 29213)) was “[32-64] μg/mL”. The “antibacterial activity in simulated wound fluid (SWF)” value (S. aureus (ATCC 29213)) was “retain”, the MIC [1] was 4.6 µg/mL and the MIC [2] was “(4.6) μg/mL”. The MIC [3] was “(2.3) μg/mL”, the “collagen production (collagen amount, % of control)” value [8] was “produce more collagen” and the “bacteriostatic or bactericidal action” value [9] was “bactericidal”.
In the case of `CCCCCCCCCCCCCCCCn1cc[n+](C)c1.[Br-]` [[C16M1Im][Br], reference compound], the MIC (E. coli ATCC 25922) is reported as 60 µM, the MIC (P. aeruginosa ATCC 27853) is reported as greater than 240 µM and the MIC (S. aureus ATCC 29213) is reported as 0.94^d μM. The MIC (E. faecalis ATCC 29212) was 0.94^c μM, the MIC (K. pneumonia ATCC 138830) was 60 µM and the MIC [1] was 0.93 µM. For the same compound, the MIC [2] was 0.93 µM and the MIC [3] was 0.93 µM.
